Assay results published in patent US11261210B2, “Glycosylated antitumor ether lipids as novel cancer stem cell cytotoxic agents” (UNIVERSITY OF MANITOBA, priority 2012, dated 2022).

How the values were obtained:
[1] = cells with a functioning apoptotic pathway; cited from earlier work
[2] = tested on: BT-474 stem cell spheroids; assay: Morphology of BT-474 stem cell spheroids under static conditions; type: cell-based, human; details: after 72 h treatment, FIG. 5A
Procedure: FIG. 5. A. Effect of β-O-Gln, C-Gln or ET-18-OCH3 on morphology of JIMT1 stem cell spheroids. B. Effect of β-O-Gln, α-O-Gln or ET-18-OCH3 on morphology of BT-474 stem cell spheroids. BT-474 cancer stem cells were grown for 7 days in ultra low adhesion 6 well plates. The tumorspheres formed were harvested, trypsinised and cell numbers were determined. Equal numbers of cells were dispersed into 48-well plates in mammocult medium and incubation was under static conditions. After spheres were formed, they were incubated with β-O-Gln, α-O-Gln or β-C-Gln (0, 10, or 30 μM) for 6 days. The medium was replenished after 3 days. Images in FIG. 5A were taken at day 0 and 72 h following addition of the compounds. Images in FIG. 5B were taken after 6 days of incubation with the compounds.
The effects of the GAELs, β-O-Gln, α-O-Gln or C-Gln on the growth and viability of tumorspheres growing under static conditions was also investigated. Studies were also conducted with ET-18-OCH3 as a representative of the ALP subclass and an apoptosis inducing compound. Under static conditions a large number of spheroids are formed in control incubations with the vehicle (0.1% EtOH). […] Complete disintegration is observed after incubation with GAELs for 6 days (FIG. 5B). […] Thus, while some disintegration had occurred it was not as comprehensive as those observed with the GAELs.

[3] = tested on: JIMT1 stem cell tumorspheres; assay: Viability of JIMT1 stem cell tumorspheres (MTS assay); type: cell-based, human; details: 6 days
Procedure: FIG. 8. Effect of β-O-Gln, α-O-Gln, β-C-Gln and ET-18-OCH3 on the viability of JIMT1 stem cell tumorspheres. BT-474 cancer stem cells were grown for 7 days in ultra low adhesion 6-well plates. The tumorspheres formed were harvested, trypsinised and cell numbers were determined. Equal numbers of cells were dispersed into 48-well non-treated plates in mammocult medium and incubation was under static conditions. Wells with only medium but no cells were treated in an identical manner to serve as blanks. After spheres were formed, O-Gln, C-Gln or ET-18-OCH3 (0, 10, 20, 30 μM) were added and incubation was for a total of 6 days. At the end of the incubation, the MTS reagent was added to each well and the plates were mixed in a nutator in a 5% CO2 incubator for 4 h. The absorbance of each well was read at 470 nm. The results are the means±standard deviation of 4 independent determinations.
Cell viability assay: Cell viability was determined by the Cell Titre 96 Aqueous One solution proliferation assay ((MTS assay; Promega) according to the instructions of the manufacturer.
The viability of cells in spheroids incubated with 20 or 30 μM ET-18-OCH3 was between 30-40% of controls.

SMILES: CCCCCCCCCCCCCCCCOC[C@H](CO[C@@H]1O[C@H](CO)[C@@H](O)[C@H](O)[C@H]1N)OC [β-O-Gln, 1-O-hexadecyl-2-O-methyl-3-O-(2′-amino-2′-deoxy-β-D-glucopyranosyl)-sn-glycerol]
- caspase 3 or 9 activation during cell death [1]: without activation of caspase 3 or 9
- spheroid integrity [2]: significant disintegration
- loss of viability ([3]; 10 μM): 90%
- loss of viability ([3]; 20 or 30 μM): Complete loss of viability
